In ChEMBL document CHEMBL1133030, “Synthesis and in vitro evaluation of human FP-receptor selective prostaglandin analogues” (Bioorg Med Chem Lett, 2000):

What was measured:
[1] = biological target: T1, Prostaglandin F2-alpha receptor (Homo sapiens, UniProt P43088); experiment: Displacement of [3H]PGF2-alpha from human FP-receptor expressed in CHO-KI cells; type: cell-based
[2] = biological target: T2, Prostaglandin E2 receptor EP3 subtype (Homo sapiens, UniProt P43115); experiment: Functional activity in RAT-1cells, transiently-transfected with human Prostaglandin E receptor EP3 (% of control ligand, sulprostone<20%)
T2 sequence (P43115 whole entry): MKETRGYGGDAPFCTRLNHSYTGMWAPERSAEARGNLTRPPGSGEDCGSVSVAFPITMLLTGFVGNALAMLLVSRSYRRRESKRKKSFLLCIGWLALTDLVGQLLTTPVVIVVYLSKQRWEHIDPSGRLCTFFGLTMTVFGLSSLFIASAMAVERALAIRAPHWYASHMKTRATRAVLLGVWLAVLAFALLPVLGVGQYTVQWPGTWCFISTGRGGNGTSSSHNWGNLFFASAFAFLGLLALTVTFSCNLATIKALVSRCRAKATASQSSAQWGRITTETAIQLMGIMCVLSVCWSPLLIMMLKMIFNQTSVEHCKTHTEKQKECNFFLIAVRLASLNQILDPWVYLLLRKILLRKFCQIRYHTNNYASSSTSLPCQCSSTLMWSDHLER

[3] = biological target: T3, Prostaglandin E2 receptor EP1 subtype (Homo sapiens, UniProt P34995); experiment: Functional activity in RAT-1cells, transiently-transfected with human Prostaglandin E receptor EP1 (% of control ligand, 17-phi-PGE2<20%)
T3 sequence (P34995 whole entry): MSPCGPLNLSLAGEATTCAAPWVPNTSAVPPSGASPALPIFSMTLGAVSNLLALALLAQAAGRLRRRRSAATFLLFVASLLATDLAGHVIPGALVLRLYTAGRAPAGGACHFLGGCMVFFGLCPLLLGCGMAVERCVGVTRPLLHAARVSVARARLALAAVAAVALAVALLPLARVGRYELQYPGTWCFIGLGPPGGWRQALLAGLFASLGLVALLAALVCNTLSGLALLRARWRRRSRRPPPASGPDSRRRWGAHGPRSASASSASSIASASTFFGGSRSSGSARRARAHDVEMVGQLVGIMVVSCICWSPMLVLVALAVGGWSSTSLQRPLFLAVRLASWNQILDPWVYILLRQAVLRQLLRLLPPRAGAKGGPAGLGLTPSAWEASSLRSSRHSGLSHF

Thromboxane A2 receptor [4] = biological target: T4, Thromboxane A2 receptor (Homo sapiens, UniProt P21731); experiment: Functional activity in RAT-1cells, transiently-transfected with human TP-receptor (% of control ligand, [3H]-U-46,619<20%)
T4 sequence (P21731 whole entry): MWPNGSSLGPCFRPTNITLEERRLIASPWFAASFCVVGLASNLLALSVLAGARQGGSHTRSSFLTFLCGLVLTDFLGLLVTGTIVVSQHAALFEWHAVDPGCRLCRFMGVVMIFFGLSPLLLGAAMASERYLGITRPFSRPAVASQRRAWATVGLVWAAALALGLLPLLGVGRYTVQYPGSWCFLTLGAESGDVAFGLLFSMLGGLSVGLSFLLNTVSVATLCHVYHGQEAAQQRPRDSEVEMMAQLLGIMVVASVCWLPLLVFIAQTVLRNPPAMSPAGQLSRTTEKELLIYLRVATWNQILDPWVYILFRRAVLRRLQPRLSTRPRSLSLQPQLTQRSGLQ

[5] = biological target: T1, Prostaglandin F2-alpha receptor; experiment: Functional activity in RAT-1cells, transiently-transfected with human FP-receptor (% of control ligand, fluprostenol<20%)
[6] = biological target: T3, Prostaglandin E2 receptor EP1 subtype; experiment: Displacement of [3H]PGE-2 from Prostaglandin E receptor EP1 expressed in CHO-KI cells; type: cell-based
[7] = biological target: T1, Prostaglandin F2-alpha receptor; experiment: Displacement of [3H]PGF-2 from human FP-receptor expressed in CHO-KI cells; type: cell-based
[8] = biological target: T2, Prostaglandin E2 receptor EP3 subtype; experiment: Compound was evaluated for its ability to displace [3H]-PGE-2 from human Prostaglandin E receptor EP3 isolated from CHO-KI cells; type: cell-based
Thromboxane A2 receptor [9] = biological target: T4, Thromboxane A2 receptor; experiment: Displacement of [3H]-U-46,619 from human TP-receptor expressed in CHO-KI cells; type: cell-based
[10] = biological target: T1, Prostaglandin F2-alpha receptor; experiment: Functional activity in RAT-1cells, transiently-transfected with human FP-receptor (% of control ligand, fluprostenol=87%)
[11] = biological target: T2, Prostaglandin E2 receptor EP3 subtype; experiment: Functional activity in RAT-1cells, transiently-transfected with human Prostaglandin E receptor EP3 (% of control ligand, sulprostone<50%)
[12] = biological target: T3, Prostaglandin E2 receptor EP1 subtype; experiment: Functional activity in RAT-1cells, transiently-transfected with human Prostaglandin E receptor EP1 (% of control ligand, 17-phi-PGE2<50%)
Thromboxane A2 receptor [13] = biological target: T4, Thromboxane A2 receptor; experiment: Functional activity in RAT-1cells, transiently-transfected with human TP-receptor (% of control ligand, [3H]-U-46,619=50%)
[14] = biological target: T2, Prostaglandin E2 receptor EP3 subtype; experiment: Displacement of [3H]PGE-2 from human Prostaglandin E receptor EP3 expressed in CHO-KI cells; type: cell-based
[15] = biological target: T3, Prostaglandin E2 receptor EP1 subtype; experiment: Compound was evaluated for its ability to displace [3H]PGE-2 from human Prostaglandin E receptor EP1 isolated from CHO-KI cells (% of control ligand, 17-phi-PGE2=80%); type: cell-based
[16] = biological target: T1, Prostaglandin F2-alpha receptor; experiment: Functional activity in RAT-1cells, transiently-transfected with human FP-receptor (% of control ligand, fluprostenol=100%)
[17] = biological target: T3, Prostaglandin E2 receptor EP1 subtype; experiment: Functional activity in RAT-1cells, transiently-transfected with human Prostaglandin E receptor EP1 (% of control ligand, 17-phi-PGE2=100%)
Thromboxane A2 receptor [18] = biological target: T4, Thromboxane A2 receptor; experiment: Functional activity in RAT-1cells, transiently-transfected with human TP-receptor (% of control ligand, [3H]-U-46,619=90%)
[19] = biological target: T1, Prostaglandin F2-alpha receptor; experiment: Functional activity in RAT-1cells, transiently-transfected with human FP-receptor (% of control ligand, fluprostenol=50%)
Thromboxane A2 receptor [20] = biological target: T4, Thromboxane A2 receptor; experiment: Functional activity in RAT-1cells, transiently-transfected with human TP-receptor (% of control ligand, [3H]-U-46,619=100%)
[21] = biological target: T1, Prostaglandin F2-alpha receptor; experiment: Functional activity in RAT-1cells, transiently-transfected with human FP-receptor (% of control ligand, fluprostenol=90%)
[22] = biological target: T3, Prostaglandin E2 receptor EP1 subtype; experiment: Functional activity in RAT-1cells, transiently-transfected with human Prostaglandin E receptor EP1 (% of control ligand, 17-phi-PGE2=80%)
[23] = biological target: T1, Prostaglandin F2-alpha receptor; experiment: Functional activity in RAT-1cells, transiently-transfected with human FP-receptor (% of control ligand, fluprostenol=150%)
[24] = biological target: T2, Prostaglandin E2 receptor EP3 subtype; experiment: Functional activity in RAT-1cells, transiently-transfected with human Prostaglandin E receptor EP3 (% of control ligand, sulprostone=130%)
Thromboxane A2 receptor [25] = biological target: T4, Thromboxane A2 receptor; experiment: Functional activity in RAT-1cells, transiently-transfected with human TP-receptor (% of control ligand, [3H]-U-46,619=95%)
[26] = biological target: T2, Prostaglandin E2 receptor EP3 subtype; experiment: Functional activity in RAT-1cells, transiently-transfected with human Prostaglandin E receptor EP3(% of control ligand, sulprostone=75%)
[27] = biological target: T2, Prostaglandin E2 receptor EP3 subtype; experiment: Functional activity in RAT-1cells, transiently-transfected with human Prostaglandin E receptor EP3 (% of control ligand, sulprostone=50%)

T1 sequence (P43088 whole entry): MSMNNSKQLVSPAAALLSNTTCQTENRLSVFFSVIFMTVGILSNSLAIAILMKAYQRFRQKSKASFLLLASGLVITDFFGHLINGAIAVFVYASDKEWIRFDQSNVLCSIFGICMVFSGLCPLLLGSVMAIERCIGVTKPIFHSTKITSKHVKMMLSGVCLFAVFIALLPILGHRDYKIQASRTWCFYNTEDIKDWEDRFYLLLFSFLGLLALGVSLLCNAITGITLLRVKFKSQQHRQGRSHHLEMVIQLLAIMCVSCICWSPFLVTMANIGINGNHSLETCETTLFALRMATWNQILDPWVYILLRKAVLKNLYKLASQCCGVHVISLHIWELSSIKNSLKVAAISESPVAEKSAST

Row | SMILES | IC50 [6] [µM] | IC50 [7] [µM] | IC50 (Thromboxane A2 receptor [9]) [µM] | IC50 [14] [µM] | also measured
1 | CCCCC(C)(C)[C@H](O)CC[C@@H]1[C@@H](CCCCCCC(=O)O)[C@@H](O)C[C@H]1O | – | – | – | – | IC50 [1]: > 1 µM; EC50 [2]: > 20 µM; EC50 [3]: > 20 µM; EC50 (Thromboxane A2 receptor [4]): > 20 µM; EC50 [5]: > 20 µM
2 | N#Cc1cccc(CC[C@H](O)CC[C@@H]2[C@@H](CCCCCCC(=O)O)[C@@H](O)C[C@H]2O)c1 | > 10 | 0.21 | > 10 | – | IC50 [8]: > 10 µM
3 | O=C(O)CCC/C=C\C[C@@H]1[C@@H](/C=C/[C@@H](O)CCc2cccc(C(F)(F)F)c2)[C@H](O)C[C@@H]1O | – | – | – | – | EC50 [10]: 0.064 µM; IC50 [1]: 0.01 µM; EC50 [11]: > 20 µM; EC50 [12]: > 20 µM; EC50 (Thromboxane A2 receptor [13]): 2.1 µM
4 | O=C(O)CCCCCC[C@@H]1[C@@H](CC[C@@H](O)CCc2ccccc2C(F)(F)F)[C@H](O)C[C@@H]1O | – | 2.14 | – | – | –
5 | O=C(O)CCCCCC[C@@H]1[C@@H](CC[C@@H](O)CCc2ccccc2F)[C@H](O)C[C@@H]1O | 3.1 | 0.076 | > 10 | > 10 | –
6 | O=C(O)CCCCCC[C@@H]1[C@@H](CC[C@@H](O)CCc2cccc(F)c2)[C@H](O)C[C@@H]1O | 10 | 0.042 | > 10 | 3.7 | –
7 | O=C(O)CCCCCC[C@@H]1[C@@H](CC[C@@H](O)CCc2ccc(C(F)(F)F)cc2)[C@H](O)C[C@@H]1O | – | 3.63 | – | – | –
8 | Cc1ccc(CC[C@H](O)CC[C@@H]2[C@@H](CCCCCCC(=O)O)[C@@H](O)C[C@H]2O)cc1 | – | 4.4 | – | – | –
9 | O=C(O)CCCCCC[C@@H]1[C@@H](CC[C@@H](O)CCc2ccccc2)[C@H](O)C[C@@H]1O | 1.1 | 0.082 | > 10 | > 10 | –
10 | COc1cccc(CC[C@H](O)CC[C@@H]2[C@@H](CCCCCCC(=O)O)[C@@H](O)C[C@H]2O)c1 | – | 1.62 | > 10 | > 10 | IC50 [15]: > 10 µM
11 | O=C(O)CCCCCC[C@@H]1[C@@H](CC[C@@H](O)COc2cccc(Cl)c2)[C@H](O)C[C@@H]1O | – | – | – | – | EC50 [16]: 0.009 µM; EC50 [17]: 19 µM; IC50 [1]: 0.001 µM; EC50 [11]: > 20 µM; EC50 (Thromboxane A2 receptor [18]): 8 µM
12 | CCCCC[C@H](O)CC[C@@H]1[C@@H](CCCCCCC(=O)O)[C@@H](O)C[C@H]1O | – | – | – | – | IC50 [1]: 0.522 µM; EC50 [19]: 5 µM; EC50 [11]: > 20 µM; EC50 [12]: > 10 µM; EC50 (Thromboxane A2 receptor [20]): 30 µM
13 | CCc1cccc(CC[C@H](O)CC[C@@H]2[C@@H](CCCCCCC(=O)O)[C@@H](O)C[C@H]2O)c1 | > 10 | 0.54 | > 10 | > 10 | –
14 | O=C(O)CCCCCC[C@@H]1[C@@H](CC[C@@H](O)CCc2ccc(F)cc2)[C@H](O)C[C@@H]1O | 3.45 | 0.21 | > 10 | > 10 | –
15 | Cc1ccccc1CC[C@H](O)CC[C@@H]1[C@@H](CCCCCCC(=O)O)[C@@H](O)C[C@H]1O | 10 | 0.63 | > 10 | > 10 | –
16 | COc1ccccc1CC[C@H](O)CC[C@@H]1[C@@H](CCCCCCC(=O)O)[C@@H](O)C[C@H]1O | – | 5.89 | – | – | –
17 | O=C(O)CCCCCC[C@@H]1[C@@H](CC[C@@H](O)CCc2cccc(C(F)(F)F)c2)[C@H](O)C[C@@H]1O | > 10 | 0.0086 | > 10 | > 10 | EC50 [17]: 30 µM; EC50 [21]: 0.085 µM; IC50 [1]: 0.0086 µM; EC50 [11]: > 20 µM; EC50 (Thromboxane A2 receptor [13]): > 20 µM
18 | CCCCC(C)(C)[C@H](O)/C=C/[C@@H]1[C@@H](C/C=C\CCCC(=O)O)[C@@H](O)C[C@H]1O | – | – | – | – | EC50 [22]: 0.3 µM; IC50 [1]: 0.016 µM; EC50 [23]: 0.09 µM; EC50 [24]: 2 µM; EC50 (Thromboxane A2 receptor [25]): 0.024 µM
19 | COc1ccc(CC[C@H](O)CC[C@@H]2[C@@H](CCCCCCC(=O)O)[C@@H](O)C[C@H]2O)cc1 | > 10 | 0.29 | > 10 | > 10 | –
20 | O=C(O)CCC/C=C\C[C@@H]1[C@@H](/C=C/[C@@H](O)COc2cccc(Cl)c2)[C@H](O)C[C@@H]1O [CLOPROSTENOL] | – | – | – | – | EC50 [22]: 0.76 µM; EC50 [26]: 5 µM; EC50 (Thromboxane A2 receptor [20]): 2.4 µM
21 | CCCCC[C@H](O)/C=C/[C@@H]1[C@@H](C/C=C\CCCC(=O)O)[C@@H](O)C[C@H]1O [DINOPROST] | – | – | – | – | EC50 [22]: 0.6 µM; EC50 [27]: 2.3 µM; EC50 (Thromboxane A2 receptor [25]): 1.4 µM
